Results as given in US8841277B2, “Methods for treating non-small cell lung cancer using 5-azacytidine” (Celgene Corporation, priority 2009, dated 2014).
“Also recorded” adds a separate entry of the source.

Assays:
DNMT1 [1] = assay: DNMT1 protein depletion, H460; type: cell-based
Description: (§1) For western analyses of protein levels, cells were washed with PBS and lysed with RIPA buffer (Cell Signaling Technology, Inc.; Danvers, Mass.) containing 350 mM NaCl and 0.1% SDS. Cell lysates were sonicated with two 5-second bursts under low amplitude (20%) using the Digital Sonic Dismembrator (Thermo Fisher Scientific, Inc.; Waltham, Mass.). Proteins were separated on 4-12% Bis-Tris NuPAGE gels (Life Technologies Corporation) and transferred to nitrocellulose membranes. DNMT1, phos-Histone-H2AX(Ser139), total Histone-H2AX, cleaved-PARP, p21, p53, and alpha-tubulin were detected using the Li-Cor Odyssey imaging system (Li-Cor Biotechnology; Lincoln, Nebr.), following incubation with the appropriate primary and secondary antibodies. The phos-Histone-H2AX(Ser139), cleaved-PARP, and p21 antibodies were from Cell Signaling Technology, Inc. The p53 and total Histone-H2AX (C-20) antibodies were from Santa Cruz Biotechnology, Inc. (Santa Cruz, Calif.). The alpha-tubulin and DNMT1 antibodies were purchased from EMD Chemicals, Inc. (Gibbstown, N.J.) and Abcam, Inc. (Cambridge, Mass.), respectively. The goat anti-Rabbit IRDye 680, goat anti-Mouse IRDye 800CW, and donkey anti-Goat IRDye 800CW secondary antibodies were from Li-Cor Biotechnology.
(§2) Reduced DNMT1 levels were detected in these cell lines as early as 4 hours after drug treatment (FIG. 17).

NSCLC cell types = assay: Apoptosis (AnnexinV-FITC/7-AAD), summary; type: cell-based; conditions: summary of studies
From the text: (§3) For cell cycle distribution, cells were stained with the NIM-DAPI reagent (Beckman Coulter, Inc.; Fullerton, Calif.). For measurement of early- and late-apoptotic cell populations, cells were stained with AnnexinV-FITC and 7-AAD reagents (Beckman Coulter, Inc.). Samples were processed according to manufacturer's instructions and analyzed on a Cell Lab Quanta MPL flow cytometer (Beckman Coulter, Inc.). […] Data were also collected for untreated cells as control.

A549 cells [2] = assay: Apoptosis (AnnexinV-FITC/7-AAD), A549; type: cell-based; conditions: 0.3-10 μM
From the text: as §3

A549 cells [3] = assay: Western analysis of DNA damage and apoptosis markers, A549; type: cell-based
Description: These studies also examined apoptosis using an assay for PARP cleavage. Cells studied included H460, A549, and H1299 cells.
as §1

[4] = system: LINE-1 elements in H1299 cells; assay: LINE-1 Methylation Assay, H1299; type: cell-based
Description: Genomic DNA was purified from cells using the DNeasy Blood and Tissue Kit (Qiagen; Valencia, Calif.), according to the manufacturer's instructions. DNA yield was quantitated with a NanoDrop 8000 spectrophotometer (Thermo Fisher Scientific, Inc.). DNAs (1 μg/sample) were submitted to EpigenDx (Worcester, Mass.) for bisulfate conversion and pyrosequencing of LINE-1 elements. Briefly, 1 μg of DNA was bisulfite-treated using the Zymo DNA Methylation Kit (Zymo Research; Orange, Calif.) and eluted in 10 μL volume. DNA eluate (1 μL) was used for PCR with biotinylated primers to the LINE-1 locus, converting the PCR product to single-stranded DNA templates. PCR products (each 10 μL) were sequenced by Pyrosequencing PSQ96 HS System (Biotage AB), following the manufacturer's instructions (Biotage; Kungsgatan, Sweden). The methylation status of each locus was analyzed individually as a T/C SNP using QCpG software (Biotage). Percent LINE-1 methylation represents the average percent methylation of four CpG sites in duplicate samples.
At the highest drug concentration tested (3 μM), LINE-1 methylation was less affected, possibly due to reduced drug incorporation as a result of inhibited cell proliferation.

H460 cells = assay: Apoptosis (AnnexinV-FITC/7-AAD), H460; type: cell-based; conditions: 0.3-10 μM
From the text: as §3

MDS, AML, CML, ALL, NHL = conditions: e.g. treatment of MDS, Aparicio et al. 2002; cited from earlier work
DNMT1 [5] = assay: DNMT1 protein depletion, H23; type: cell-based; conditions: H23 cell line
Description: as §2

H1299 cells [6] = assay: Cell cycle distribution (NIM-DAPI), H1299; type: cell-based
From the text: These studies examined the cell cycle distribution of NSCLC cells treated with AZA or DAC using NIM-DAPI analysis.
as §3

H1299 cells [7] = assay: Gene expression microarray analysis, H1299; type: cell-based, human; conditions: 48 hours; for Downregulated Genes: AZA-Specific / DAC-Specific Genes (number) / Upregulated Genes: AZA-Specific / DAC-Specific Genes (number) / Downregulated Genes: Genes in Common (number) / Upregulated Genes: Genes in Common (number): H1299; for Downregulated Genes: Genes in Common (number) / Upregulated Genes: Genes in Common (number): regulated by both AZA and DAC;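 as to Downregulated Genes: AZA-Specific / DAC-Specific Genes (number): drug dose range 0.3 to 3 µM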;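 as to Downregulated Genes: Genes in Common (number): drug dose range 0.3 to 3 µM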;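 as to Upregulated Genes: AZA-Specific / DAC-Specific Genes (number): drug dose range 0.3 to 3 µM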;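 as to Upregulated Genes: Genes in Common (number): drug dose range 0.3 to 3 µM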
Description: (§4) Cells were lysed using the TRIzol reagent (Life Technologies Corporation) and total RNA was isolated using miRNeasy (Qiagen). Double-stranded cDNA and biotin-labeled cRNA were synthesized using 100 ng of total RNA using Ambion's MessageAmp Premier RNA Amplification Kit (ABI; Foster City, Calif.). Biotin-labeled cRNA, at 10 μg, was fragmented and hybridized to each human U133A 2.0 genechip (Affymetrix; Santa Clara, Calif.). The GC-RMA algorithm was used for normalization and all analyses were done using GeneSpring 7.3 (Agilent; Santa Clara, Calif.). Averaged signals from biological duplicate samples were used to determine fold change (Treated vs. Untreated), with an absolute fold change of ≧1.7 defining regulated genes. NextBio was used to identify regulated Gene Ontology biogroups from lists of regulated genes. The top 15 biogroups are those with the lowest p-values calculated within NextBio.
(§5) The number of genes modulated in common between the two drugs was low.
(§6) Functional groupings of the modulated genes were determined using Gene Ontology classifications in Nextbio (http://www.nextbio.com/).

A549 cells [8] = assay: Gene expression microarray analysis, A549; type: cell-based, human; conditions: 48 hours; for Downregulated Genes: Genes in Common (number) / Upregulated Genes: Genes in Common (number): regulated by both AZA and DAC;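 as to Downregulated Genes: AZA-Specific / DAC-Specific Genes (number): drug dose range 0.3 to 3 µM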;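 as to Downregulated Genes: Genes in Common (number): drug dose range 0.3 to 3 µM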;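 as to Upregulated Genes: AZA-Specific / DAC-Specific Genes (number): drug dose range 0.3 to 3 µM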;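 as to Upregulated Genes: Genes in Common (number): drug dose range 0.3 to 3 µM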
Description: as §4, §5, §6

[9] = 0.3-10 μM, 24 h to 72 h (3 days)

For Nc1ncn([C@H]2C[C@H](O)[C@@H](CO)O2)c(=O)n1 [DAC, 5-aza-2′-deoxycytidine], the DNMT1 depletion (DNMT1 [1]; 0.3-10 μM, 24 h and 48 h (Example 5)) was “able to cause DNMT1 depletion”, the “Relative potency in reducing DNMT1 levels” value (DNMT1 [1]; 20 hours) was “equipotent” and the DNMT1 protein levels (DNMT1 [1]; dose range, 20 hours) was “significantly reduced”. The “Early- and late-apoptotic cell populations (AnnexinV/7-AAD)” value (NSCLC cell types) was “very slight increase in these cell populations”, the “Early- and late-apoptotic cell populations (AnnexinV/7-AAD)” value (A549 cells [2]; 48-hour treatment) was “very slight increase in these cell populations” and the “Early- and late-apoptotic cell populations (AnnexinV/7-AAD)” value (A549 cells [2]; 72-hour treatment) was “very slight increase in these cell populations; also recorded: slight increase in early-apoptotic (AnnexinV^+ 7-AAD^−) cells only”. For the same compound, the “Induction of Histone H2AX phosphorylation (marker of DNA damage)” value (A549 cells [3]; [9]) was “did not have any effect and not”, the “Induction of PARP cleavage (marker of apoptosis)” value (A549 cells [3]; [9]) was “did not have any effect and not” and the p21 expression (A549 cells [3]; 24 h and 48 h) was “induce”. For the same compound, the p53 expression (A549 cells [3]; 24 h and 48 h) was “induce”, the “Induction of Histone H2AX phosphorylation” value (A549 cells [3]; 6 days of treatment) was “lack of induction” and the “Induction of PARP cleavage” value (A549 cells [3]; 6 days of treatment) was “lack of induction”. For the same compound, the “Concentration of peak hypomethylation (LINE-1)” value ([4]; 48 or 72 hours) was 0.1 μM, the “Potency in decreasing LINE-1 methylation relative to AZA” value ([4]; 48 or 72 hours) was 3- to 10 fold and the “DNA hypomethylation (LINE-1 methylation)” value ([4]; 48 hours or 72 hours) was “induced DNA hypomethylation; also recorded: caused a decrease in LINE-1 methylation”. For the same compound, the “Early- and late-apoptotic cell populations (AnnexinV/7-AAD)” value (H460 cells; 30-hour treatment) was “very slight increase in these cell populations; also recorded: very slight increase in this cell population”, the “Early- and late-apoptotic cell populations (AnnexinV/7-AAD)” value (H460 cells; 48-hour treatment) was “some increase in this cell population” and the “Anti-tumor activity in clinical trials” value (MDS, AML, CML, ALL, NHL) was “significant anti-tumor activity”. For the same compound, the DNMT1 depletion (DNMT1 [5]) was “time- and dose-dependent depletion”, the “Cell cycle distribution (NIM DAPI)” value (H1299 cells [6]; 48-hour treatment, 0.3-10 μM) was “induced accumulation of cells in G2/M” and the “Cell cycle distribution (NIM DAPI)” value (H1299 cells [6]; 72-hour treatment, 0.3-10 μM) was “induced accumulation of cells in G2/M and Sub-G1; also recorded: induced accumulation of cells in Sub-G1 while DAC also caused an increase of cells in G2/M”. The “Cell cycle distribution (NIM DAPI)” value (H1299 cells [6]; summary of studies) was “induced accumulation of cells in Sub-G1 while DAC also caused an increase of cells in G2/M”, the “Fold more genes modulated than AZA” value (H1299 cells [7]; H1299 (stated for A549 and H1299 together), 0.3 μM) was 4- to 20 fold and the “Downregulated Genes: AZA-Specific / DAC-Specific Genes (number)” value (H1299 cells [7]; 0.3 μM) was 121. The “Upregulated Genes: AZA-Specific / DAC-Specific Genes (number)” value (H1299 cells [7]; 0.3 μM) was 214, the “Downregulated Genes: Genes in Common (number)” value (“Downregulated Genes: Genes” below) (H1299 cells [7]; 0.3 μM) was 45 and the “Upregulated Genes: Genes in Common (number)” value (“Upregulated Genes: Genes” below) (H1299 cells [7]; 0.3 μM) was 55. For the same compound, the “Downregulated Genes: AZA-Specific / DAC-Specific Genes (number)” value (H1299 cells [7]; 1.0 μM) was 170, the “Upregulated Genes: AZA-Specific / DAC-Specific Genes (number)” value (H1299 cells [7]; 1.0 μM) was 238 and the “Downregulated Genes: Genes” value (H1299 cells [7]; 1.0 μM) was 107. The “Upregulated Genes: Genes” value (H1299 cells [7]; 1.0 μM) was 135, the “Downregulated Genes: AZA-Specific / DAC-Specific Genes (number)” value (H1299 cells [7]; 3.0 μM) was 257 and the “Upregulated Genes: AZA-Specific / DAC-Specific Genes (number)” value (H1299 cells [7]; 3.0 μM) was 303. The “Downregulated Genes: Genes” value (H1299 cells [7]; 3.0 μM) was 153, the “Upregulated Genes: Genes” value (H1299 cells [7]; 3.0 μM) was 173 and the “Fold more genes modulated than AZA” value (A549 cells [8]; A549 (stated for A549 and H1299 together), 0.3 μM) was 4- to 20 fold. The “Downregulated Genes: AZA-Specific / DAC-Specific Genes (number)” value (A549 cells [8]; A549, 0.3 μM) was 55, the “Upregulated Genes: AZA-Specific / DAC-Specific Genes (number)” value (A549 cells [8]; A549, 0.3 μM, fold change ≧1.7) was 139 and the “Downregulated Genes: Genes” value (A549 cells [8]; A549, 0.3 μM) was 11. The “Upregulated Genes: Genes” value (A549 cells [8]; A549, 0.3 μM) was 17, the “Downregulated Genes: AZA-Specific / DAC-Specific Genes (number)” value (A549 cells [8]; A549, 1.0 μM) was 111 and the “Upregulated Genes: AZA-Specific / DAC-Specific Genes (number)” value (A549 cells [8]; A549, 1.0 μM) was 261. The “Downregulated Genes: Genes” value (A549 cells [8]; A549, 1.0 μM) was 30, the “Upregulated Genes: Genes” value (A549 cells [8]; A549, 1.0 μM) was 45 and the “Downregulated Genes: AZA-Specific / DAC-Specific Genes (number)” value (A549 cells [8]; A549, 3.0 μM) was 239. For the same compound, the “Upregulated Genes: AZA-Specific / DAC-Specific Genes (number)” value (A549 cells [8]; A549, 3.0 μM) was 413, the “Downregulated Genes: Genes” value (A549 cells [8]; A549, 3.0 μM) was 55 and the “Upregulated Genes: Genes” value (A549 cells [8]; A549, 3.0 μM) was 66. The “Regulation of genes in the Response to DNA Damage Stimulus/DNA Repair biogroup” value (A549 cells [8]; A549) was “general downregulation”.
